Source: paper PMC3151326 (2011)

Target: PDE5 (Homo sapiens, UniProt O76074)
Assay: cGMP PDE activity
Type: biochemical

IC50: ~100 µM
SMILES: CSc1ccc(/C=C2/C(C)=C(CC(=O)O)c3cc(F)ccc32)cc1 [SS, sulindac sulfide]
